Measurements from patent US8691800B2, “Quinoline derivatives as antibacterial agents” (Janssen Pharmaceutica N.V., priority 2005, dated 2014).
Converted amounts (≈) assume the structure as drawn.

Experiments:
[1] = tested on: Enterococcus faecalis (ATCC29212); assay: Microtitre plate assay, IC90 for bacterial growth; type: cell-based; details: for IC90: Enterococcus faecalis, ATCC29212, 90% inhibitory concentration for bacterial growth, read-out: IC90 EFA 29212; for IC90 EFA 29212: 90% inhibitory concentration for bacterial growth
Description: (§1) The bacteria used in this study were grown overnight in flasks containing 100 ml Mueller-Hinton Broth (Becton Dickinson—cat. no. 275730) in sterile de-ionized water, with shaking, at 37° C. Stocks (0.5 ml/tube) were stored at 70° C. until use. Bacteria titrations were performed in microtiter plates and colony forming units (CFUs) were determined. In general, an inoculum level of approximately 100 CFUs was used for susceptibility testing.
(§2) Anti bacterial Susceptibility Testing: IC90 Determination
(§3) Flat-bottom, sterile 96-well plastic microtiter plates were filled with 180 μl of sterile deionized water, supplemented with 0.25% BSA. Subsequently, stock solutions (7.8× final test concentration) of compounds were added in 45 μl volumes in column 2. Serial five-fold dilutions (45 μl in 180 μl) were made directly in the microtiter plates from column 2 to reach column 11. Untreated control samples with (column 1) and without (column 12) inoculum were included in each microtiter plate. Depending on the bacteria type, approximately 10 to 60 CFU per well of bacteria inoculum (100 TCID50), in a volume of 100 μl in 2.8× Mueller-Hinton broth medium, was added to the rows A to H, except column 12. The same volume of broth medium without inoculum was added to column 12 in row A to H. The cultures were incubated at 37° C. for 24 hours under a normal atmosphere (incubator with open air valve and continuous ventilation). At the end of incubation, one day after inoculation, the bacterial growth was quantitated fluorometrically. Therefore resazurin (0.6 mg/ml) was added in a volume of 20 μl to all wells 3 hours after inoculation, and the plates were re-incubated overnight. A change in colour from blue to pink indicated the growth of bacteria. The fluorescence was read in a computer-controlled fluorometer (Cytofluor Biosearch) at an excitation wavelength of 530 nm and an emission wavelength of 590 nm. The % growth inhibition achieved by the compounds was calculated according to standard methods. The IC90 (expressed in μg/ml) was defined as the 90% inhibitory concentration for bacterial growth.

[2] = tested on: Pseudomonas aeruginosa (ATCC27853); assay: Microtitre plate assay, IC90 for bacterial growth; type: cell-based; details: for IC90: Pseudomonas aeruginosa, ATCC27853, 90% inhibitory concentration for bacterial growth, read-out: IC90 PAE 27853; for IC90 PAE 27853: 90% inhibitory concentration for bacterial growth
Description: as §1, §2, §3

[3] = tested on: Staphylococcus aureus (ATCC29213); assay: Microtitre plate assay, IC90 for bacterial growth; type: cell-based; details: 90% inhibitory concentration for bacterial growth, 24 hours at 37° C., resazurin; for IC90: Staphylococcus aureus, ATCC29213, 24 h, read-out: IC90 STA 29213
Description: as §1, §2, §3

[4] = tested on: Streptococcus pneumoniae (ATCC6305); assay: Microtitre plate assay, IC90 for bacterial growth; type: cell-based; details: for IC90: Streptococcus pneumoniae, ATCC6305, 90% inhibitory concentration for bacterial growth, read-out: IC90 SPN 6305; for IC90 SPN 6305: 90% inhibitory concentration for bacterial growth
Description: as §1, §2, §3

[5] = tested on: Streptococcus pyogens (ATCC8668); assay: Microtitre plate assay, IC90 for bacterial growth; type: cell-based; details: for IC90: Streptococcus, ATCC8668, 90% inhibitory concentration for bacterial growth, read-out: IC90 SPY 8668; for IC90 SPY 8668: 90% inhibitory concentration for bacterial growth
Description: as §1, §2, §3

[6] = tested on: Bacillus subtilis (ATCC43639); assay: Microtitre plate assay, IC90 for bacterial growth; type: cell-based; details: for IC90: Bacillus subtilis, ATCC43639, 90% inhibitory concentration for bacterial growth, read-out: IC90 BSU 43639
Description: as §1, §2, §3

[7] = tested on: Listeria monocytogenes (ATCC49594); assay: Microtitre plate assay, IC90 for bacterial growth; type: cell-based; details: for IC90: Listeria monocytogenes, ATCC49594, 90% inhibitory concentration for bacterial growth, read-out: IC90 LMO 49594
Description: as §1, §2, §3

[8] = tested on: Staphylococcus aureus (ATCC25923); assay: Microtitre plate assay, IC90 for bacterial growth; type: cell-based; details: for IC90 STA 25923: 90% inhibitory concentration for bacterial growth; for IC90: Staphylococcus aureus, ATCC25923, 90% inhibitory concentration for bacterial growth, read-out: IC90 STA 25923
Description: as §1, §2, §3

[9] = tested on: Streptococcus mutans (ATCC33402); assay: Microtitre plate assay, IC90 for bacterial growth; type: cell-based; details: Streptococcus mutans, ATCC33402, 90% inhibitory concentration for bacterial growth, read-out: IC90 SMU 33402
Description: as §1, §2, §3

[10] = tested on: methicilline resistant Staphylococcus aureus (MRSA) (a clinical isolate from the University of Antwerp); assay: Microtitre plate assay, IC90 for bacterial growth; type: cell-based; details: 90% inhibitory concentration for bacterial growth; for IC90: Staphylococcus aureus, MRSA, read-out: IC90 STA RMETHIC
Description: as §1, §2, §3

[11] = 90% inhibitory concentration for bacterial growth

SMILES | IC90 [1] [µg/mL] | IC90 [2] [µg/mL] | IC90 [3] [µg/mL] | IC90 [4] [µg/mL] | IC90 [5] [µg/mL] | IC90 EFA 29212 [1] [µg/mL] | IC90 PAE 27853 [2] [µg/mL] | IC90 STA 29213 [3] [µg/mL] | IC90 SPN 6305 [4] [µg/mL] | IC90 SPY 8668 [5] [µg/mL] | melting point [°C] | IC90 BSU 43639 [6, 11] [µg/mL] | IC90 LMO 49594 [7, 11] [µg/mL] | IC90 STA 25923 [8] [µg/mL] | IC90 [9] [µg/mL] | IC90 [7] [µg/mL] | IC90 [6] [µg/mL] | IC90 [8] [µg/mL] | IC90 [10] [µg/mL] | IC90 STA RMETHIC [10] [µg/mL]
COc1nc2ccc(Br)cc2cc1C(c1ccccc1)C1(c2cccc3ccccc23)CCN(C)CO1 (single isomer, unassigned) [Compound 7] |  |  |  |  |  | 13.9 (≈ 25.1 µM) | 13.9 (≈ 25.1 µM) | 13.9 (≈ 25.1 µM) | 13.9 (≈ 25.1 µM) | 13.9 (≈ 25.1 µM) | 108 |  |  |  |  |  |  |  |  | 
COc1ccc2nc(OC)c(C(c3ccccc3)C3(c4cccc5ccccc45)CCN(C)CO3)cc2c1 (single isomer, unassigned) [Compound 4] |  |  |  | 1 (≈ 1.98 µM) | 20.1 (≈ 39.8 µM) | 50.5 (≈ 100 µM) | 50.5 (≈ 100 µM) | 50.5 (≈ 100 µM) |  |  |  | 50.5 (≈ 100 µM) | 25.3 (≈ 50.1 µM) | 50.5 (≈ 100 µM) | 20.1 (≈ 39.8 µM) |  |  |  | 50.5 (≈ 100 µM) | 
COc1nc2ccc(-c3ccco3)cc2cc1C(c1ccccc1)C1(c2cccc3ccccc23)CCN(C)CO1 (single isomer, unassigned) [Compound 6] | 13.6 (≈ 25.2 µM) | 13.6 (≈ 25.2 µM) | 13.6 (≈ 25.2 µM) |  | 13.6 (≈ 25.2 µM) |  |  |  | 2.7 (≈ 4.99 µM) |  |  |  |  |  |  |  | 13.6 (≈ 25.2 µM) | 13.6 (≈ 25.2 µM) |  | 54.1 (≈ 100 µM)
COc1nc2ccc(Br)cc2cc1C(c1ccccc1)C1(c2cccc3ccccc23)CCN(C)CO1 (single isomer, unassigned) [Compound 1] |  |  |  |  |  | 55.4 (≈ 100 µM) | 44.0 (≈ 79.5 µM) | 55.4 (≈ 100 µM) | 5.5 (≈ 9.94 µM) | 44.0 (≈ 79.5 µM) | 112 |  |  |  | 44 (≈ 79.5 µM) | 44 (≈ 79.5 µM) | 44 (≈ 79.5 µM) | 55.4 (≈ 100 µM) | 55.4 (≈ 100 µM) | 

Now from value to compound, other results behind:

IC90 [1] [µg/mL] | IC90 [2] [µg/mL] | IC90 [3] [µg/mL] | IC90 [4] [µg/mL] | IC90 [5] [µg/mL] | IC90 EFA 29212 [1] [µg/mL] | IC90 PAE 27853 [2] [µg/mL] | IC90 STA 29213 [3] [µg/mL] | IC90 SPN 6305 [4] [µg/mL] | IC90 SPY 8668 [5] [µg/mL] | melting point [°C] | IC90 BSU 43639 [6, 11] [µg/mL] | IC90 LMO 49594 [7, 11] [µg/mL] | IC90 STA 25923 [8] [µg/mL] | IC90 [9] [µg/mL] | IC90 [7] [µg/mL] | IC90 [6] [µg/mL] | IC90 [8] [µg/mL] | SMILES | IC90 [10] [µg/mL] | IC90 STA RMETHIC [10] [µg/mL]
14.8 (≈ 25.2 µM) | 14.8 (≈ 25.2 µM) | 14.8 (≈ 25.2 µM) | 13.2 (≈ 22.5 µM) | 14.8 (≈ 25.2 µM) |  |  |  |  |  |  |  |  |  |  |  |  |  | COc1nc2ccc(Br)cc2cc1C(c1ccc(Cl)cc1)C1(c2cccc3ccccc23)CCN(C)CO1 (single isomer, unassigned) [Compound 13] |  | 
 |  |  |  |  | 1.8 | 2.0 | 1.8 | 1.8 | 1.8 | 245 |  |  |  |  |  |  |  | COc1nc2ccc(Br)cc2cc1C(c1ccccc1)C1(c2cccc3ccccc23)CC[N+](C)(C)CO1.[I-] (single isomer, unassigned) [Compound 17] |  | 2.3
 |  |  |  |  | 1.8 | 4.6 | 0.5 | 1.8 | 2.1 | 215 |  |  |  |  |  |  |  | CC[N+]1(C)CCC(c2cccc3ccccc23)(C(c2ccccc2)c2cc3cc(Br)ccc3nc2OC)OC1.[I-] (single isomer, unassigned) [Compound 20] |  | 2.3
 |  |  |  |  | 13.6 (≈ 25.2 µM) | 13.6 (≈ 25.2 µM) | 13.6 (≈ 25.2 µM) | 12.1 (≈ 22.4 µM) | 10.8 (≈ 20 µM) |  |  |  | 13.6 (≈ 25.2 µM) | 10.8 (≈ 20 µM) | 13.6 (≈ 25.2 µM) |  |  | COc1nc2ccc(-c3ccco3)cc2cc1C(c1ccccc1)C1(c2cccc3ccccc23)CCN(C)CO1 (single isomer, unassigned) [Compound 12] |  | 13.6 (≈ 25.2 µM)
